Measured values as given in patent US20150025080A1, “SOLID DISPERSIONS OF SITAGLIPTIN AND PROCESSES FOR THEIR PREPARATION” (RANBAXY LABORATORIES LIMITED, priority 2011, published 2015).

Test: Storage stability in humidity chamber at 50% RH and 25° C., evaluated by XRPD
Assay type: physicochemical
Settings: about 50% relative humidity
Method: The X-ray powder diffractograms (XRPD) of the samples were determined by using Instrument: PANalytical; Mode: Expert PRO; Detector: Xcelerator; ScanRange: 3-40; Step size: 0.02; Range: 3-40° 2 theta; CuKα radiation at 45 kV.
0.52 g of the product obtained as per Example 2 was stored in double sealed polybags in a humidity chamber maintained at 50% RH and 25° C. for 4 days to evaluate the stability. The XRPD pattern of the compound stored at 50% RH and 25° C. for 4 days is depicted in FIG. 10.
0.54 g of the product obtained as per Example 2 was stored in double sealed polybags in a humidity chamber maintained at 50% RH and 25° C. for 10 days to evaluate the stability. The XRPD pattern of the compound stored at 50% RH and 25° C. for 10 days is depicted in FIG. 11.
0.54 g of the product obtained as per Example 5 was stored in double-sealed polybags in a humidity chamber maintained at 50% RH and 25° C. for 4 days to evaluate the stability. The XRPD pattern of the product stored at 50% RH and 25° C. for 4 days is depicted in FIG. 13.
0.53 g of the product obtained as per Example 5 was stored in double-sealed polybags in a humidity chamber maintained at 50% RH and 25° C. for 10 days to evaluate the stability. The XRPD pattern of the product stored at 50% RH and 25° C. for 10 days is depicted in FIG. 14. […]

- time period in which the amorphous form tends to undergo crystallization: about 4 days
SMILES: N[C@@H](CC(=O)N1CCn2c(nnc2C(F)(F)F)C1)Cc1cc(F)c(F)cc1F [sitagliptin dihydrogen phosphate]
